This is an account of results in article PMC12703428, “Development of Granzyme A Turn‐ON Fluorescent Activity‐Based Probes” (Chembiochem, 2025).

“Also recorded” adds a separate entry of the source. Square brackets hold non-standard residues; d marks the D form. Ends that are not written are not given here. Oic = O=C(O)[C@@H]1C[C@@H]2CCCC[C@@H]2N1; Tic = O=C(O)[C@@H]1Cc2ccccc2CN1

This series deals with T1, GzmA in intact NK‐92 cells (Homo sapiens, UniProt P12544).
T1 construct: host or cells: NK-92
T1 sequence (P12544 29-262): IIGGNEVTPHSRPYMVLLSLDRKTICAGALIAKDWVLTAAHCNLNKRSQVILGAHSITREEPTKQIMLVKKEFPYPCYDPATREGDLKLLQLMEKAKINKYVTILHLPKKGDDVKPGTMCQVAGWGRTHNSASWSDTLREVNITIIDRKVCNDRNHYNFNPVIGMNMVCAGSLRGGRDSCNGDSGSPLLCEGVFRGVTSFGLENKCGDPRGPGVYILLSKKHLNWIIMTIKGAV
Description: Labeling of GzmA in intact NK-92 cells (in-gel fluorescence). The settings on record: 2 h, 37 °C; for Labeling of GzmA in intact NK-92 cells: 1x10^6 NK-92 cells, lysis then in-gel fluorescence and GzmA western blot; for Cell permeability / cellular uptake: intact NK-92 cells, judged from labeling in intact cells. The format is cell-based. The method, then:
Figure 4 Characterization of qABPs in native proteomes. A) Labeling of GzmA by 5 and 6 in lysates of various cell lines (1 h, 37 °C). B) Stability of 5 and 6 in buffer and cell media (11 h, 37 °C). The hydrolysis of probes was measured by monitoring the production of Cy5 fluorescence signal over time. […] C) Labeling of GzmA by probes 3 –6 in NK‐92 cells (2 h, 37 °C). D) Flow cytometry analysis of protein labeling in NK‐92 cells by 3 –5. […] E) Flow cytometry analysis of concentration‐dependent GzmA labeling in NK‐92 cells and S/N of 5 (5 μM, 2 h, 37 °C). […] F) Flow cytometry analysis of protein labeling by 5 in MDA‐MB‐231 cells co‐cultured with NK‐92 cells (see Supporting Information for conditions). […] TEXT PRINTED IN THE PICTURE: (E) qABP 5: S/N = 4 […]
Final reaction volume was 20 µL. […]
Conditions for Figure 4C: Various concentrations of probes 3-6 were incubated with 1x10^6 NK-92 cells for 2 h at 37 °C in a humidified incubator. Cells were centrifuged, washed with PBS (x2) and lysed with ~40 µL of ice-cold RIPA buffer. Lysates were collected, protein concentration was measured with PIERCE BCA protein assay and samples were analyzed with in-gel fluorescence and GzmA western blotting.
D. Flow cytometry analysis […]
Conditions for Figure 4F: In a 6-well cell culture plate, 5x10^5 MDA-MB-231 cells were seeded and allowed to attach overnight. After confirming cell attachment under the microscope, media were removed and fresh media containing 2x10^6 NK-92 cells (or NK-92 culture media alone for control) were added along with simultaneous addition of qABP 5 (5 µM). Cells were co-cultured for the indicated times at 37 °C under 5% CO2 in a humidified atmosphere. […]
E. Synthesis of compounds
1H, 13C and 31P spectra were acquired on a 500 MHz NMR in CDCl3 or CD3OD at 25 °C. The 1H chemical shifts are given in parts per million (δ) with respect to an internal tetramethylsilane (TMS, δ 0.00 ppm) standard. NMR data are reported in the following format: chemical shifts (multiplicity (s = singlet, d = doublet, t = triplet, m = multiplet), coupling constants [Hz], integration). LCMS data were acquired on Agilent 1200 series LC/MS or Shimadzu Prominence-i LC-2030s instrument, whereas HRMS data were obtained on an Agilent Q-TOF LC/MS/MS instrument. All compounds are >95% pure by HPLC analysis.

Regarding IGNR [compound 5], the “Labeling of GzmA in intact NK-92 cells” value is “effectively labeled active GzmA in intact cells” and the “Cell permeability / cellular uptake” value is “excellent cellular uptake”.

Turning to [Tic]G[Oic]R [compound 6], the “Labeling of GzmA in intact NK-92 cells” value is “poor labeling” and the “Cell permeability / cellular uptake” value is listed as “limited cell permeability; also recorded: cell impermeable”.
